Assay results from the supplement of paper PMC10307832.

Tests used:
Assay in all cases: relative viability (nuclei count vs DMSO), 5 days (fraction); higher = more cells survive
PRIMA-1MET = compound: COCC1(CO)C(=O)C2CCN1CC2 [PRIMA-1MET]
How it was run: (§1)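 Hoechst staining, done together with fixation and permeabilisation, marked nuclei for 4× imaging and MetaXpress counting. This followed 5 days without medium change after lung cancer cell lines, kept overnight at 37 °C in 1536-well plates, were pinned with five library-drug doses (not always all listed) spaced by √10 on vehicle-anchored plates. Viability is the ratio of treated-well to vehicle-well nuclei, expressed as a median across plates. Plates passed only at control CV below 25% with at least one doubling.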

Zibotentan = compound: COc1nc(C)cnc1NS(=O)(=O)c1cccnc1-c1ccc(-c2nnco2)cc1 [Zibotentan]
How it was run: as §1

[1] = compound: CCN(CC)CCCCNc1ncc2cc(-c3cc(OC)cc(OC)c3)c(NC(=O)NC(C)(C)C)nc2n1
How it was run: as §1

[2] = compound: O=c1cc(-c2cccc3c2Sc2ccccc2S3)oc(N2CCOCC2)c1
How it was run: as §1

[3] = compound: C1COCCN1C2=CC(=O)C3=C(O2)C(=CC=C3)C4=CC=CC5=C4SC6=CC=CC=C56
How it was run: as §1

| Cell Line | relative viability (PRIMA-1MET; 0.2 µM) | relative viability (PRIMA-1MET; 0.6325 µM) | relative viability (PRIMA-1MET; 2 µM) | relative viability (PRIMA-1MET; 6.325 µM) | relative viability (PRIMA-1MET; 20 µM) | relative viability (Zibotentan; 0.08 µM) | relative viability (Zibotentan; 0.253 µM) | relative viability (Zibotentan; 0.8 µM) | relative viability (Zibotentan; 2.53 µM) | relative viability ([1]; 0.01 µM) | relative viability ([1]; 0.03162 µM) | relative viability ([1]; 0.1 µM) | relative viability ([1]; 0.3162 µM) | relative viability ([1]; 1 µM) | relative viability ([2]; 0.08 µM) | relative viability ([2]; 0.253 µM) | relative viability ([2]; 0.8 µM) | relative viability ([2]; 2.53 µM) | relative viability ([2]; 8 µM) | relative viability ([3]; 0.01 µM) | relative viability ([3]; 0.03162 µM) | relative viability ([3]; 0.1 µM) | relative viability ([3]; 0.3162 µM) | relative viability ([3]; 1 µM) |
| --- | --- | --- | --- | --- | --- | --- | --- | --- | --- | --- | --- | --- | --- | --- | --- | --- | --- | --- | --- | --- | --- | --- | --- | --- |
| IA-LM | 0.995 | 0.813 | 1.02 | 1.01 | 0.958 | 0.937 | 0.938 | 1 | 0.972 | 1.02 | 0.879 | 0.916 | 1.25 | 0.883 | 0.987 | 1.05 | 0.887 | 0.805 | 1.12 | 0.997 | 0.894 | 0.96 | 0.862 | 0.825 |
| SW 900 | 0.984 | 0.757 | 0.637 | 0.804 | 0.0765 | 0.918 | 0.75 | 0.851 | 0.921 | 0.907 | 1.11 | 0.804 | 1.02 | 0.717 | 0.622 | 0.892 | 0.942 | 0.809 | 0.774 | 0.793 | 0.811 | 0.721 | 0.942 | 0.853 |
| EBC-1 | 1.09 | 0.998 | 0.933 | 0.987 | 0.811 | 0.944 | 0.991 | 1.06 | 1.09 | 1.11 | 0.988 | 1.06 | 1.24 | 0.953 | 1.02 | 1.07 | 0.98 | 0.929 | 0.779 | 1.04 | 0.965 | 0.928 | 0.932 | 0.917 |
| NCI-H2347 | 0.961 | 0.959 | 0.779 | 1.11 | 1.02 | 1.04 | 0.95 | 1.12 | 1.06 | 0.998 | 1.01 | 1.12 | 1.15 | 0.931 | 0.96 | 1.07 | 1.1 | 1.13 | 1.13 | 1.11 | 0.979 | 0.957 | 0.981 | 0.988 |
| A549 | 1.1 | 0.893 | 0.944 | 1.01 | 0.891 | 1.04 | 0.938 | 0.931 | 1 | 0.927 | 0.97 | 1.15 | 1.06 | 0.876 | 0.946 | 1.22 | 1.1 | 0.991 | 1.07 | 1.01 | 0.96 | 1.01 | 0.973 | 0.914 |
| NCI-H322M | 1.13 | 0.831 |  | 1.11 | 0.838 | 1.03 | 0.818 | 0.906 | 0.983 | 0.926 | 0.923 | 1.05 | 1.07 | 0.871 | 0.841 | 0.969 | 0.848 | 0.879 | 0.875 | 0.895 | 1.01 |  | 0.97 | 0.77 |
| NCI-H2087 | 0.687 | 0.883 | 0.912 | 1.17 | 0.773 | 0.934 | 1.02 | 1.16 | 1.05 | 1.02 | 0.966 | 1.16 | 1.03 | 0.942 | 0.958 | 1.15 | 1.12 | 0.835 | 1.13 | 1.11 | 1.08 | 1.01 | 0.977 | 1.05 |
| LCLC-97TM1 | 0.845 | 0.738 | 1.03 | 0.963 | 0.468 | 0.979 | 0.86 | 1.06 | 1.04 | 0.725 | 0.81 | 1.11 | 1.03 | 0.864 | 0.971 | 0.962 | 0.929 | 0.794 | 1.09 | 0.978 | 0.973 | 0.969 | 0.953 | 1.04 |
| NCI-H1915 | 0.954 | 0.859 | 0.734 | 1 | 0.957 | 1.06 | 0.986 | 0.973 | 1.01 | 1.08 | 1.04 | 1.02 | 1.12 | 1.01 | 0.988 | 1.02 | 1.13 | 0.993 | 1.04 | 1.04 | 1.08 | 1.06 | 0.995 | 1.05 |
| NCI-H3122 | 0.85 | 0.972 | 0.948 | 1.01 | 1 | 1.02 | 1.01 | 0.978 | 0.98 | 1.02 | 1.04 | 1.07 | 1.1 | 0.967 | 1.01 | 1.02 | 1.03 | 1.03 | 1.08 | 1.01 | 0.988 | 1.01 | 0.961 | 1.01 |
| NCI-H1703 | 1.19 | 0.852 | 0.815 | 0.797 | 0.0528 | 0.972 | 0.94 | 1.25 | 0.505 | 0.832 | 0.854 | 1.19 | 1.04 | 0.723 | 0.718 | 1.01 | 1.03 | 0.925 | 0.843 | 1.19 | 0.926 | 0.964 | 0.958 | 0.861 |
| NCI-H460 | 1.01 | 0.859 | 0.86 | 1.02 | 0.592 | 1.04 | 0.838 | 0.926 | 0.995 | 0.994 | 1.05 | 1.14 | 1.09 | 0.959 | 1 | 1.13 | 0.918 | 0.935 | 1.08 | 0.971 | 0.993 | 1.01 | 1 | 0.989 |
| SW 1573 | 1.11 | 0.787 | 0.87 | 0.246 | 0.0301 | 1.03 | 0.707 | 1.08 | 1.09 | 0.932 | 1.01 | 1.09 | 1.02 | 0.906 | 0.965 | 1.1 | 1 | 0.949 | 1.1 | 0.981 | 0.998 | 0.985 | 0.952 | 0.938 |
| EPLC-272H | 0.862 | 0.839 | 0.943 | 1.03 | 0.831 | 0.945 | 1.07 | 0.863 | 0.911 | 1.04 | 0.686 | 1.03 | 1.05 | 0.703 | 0.936 | 0.939 | 0.959 | 0.907 | 1.18 | 1.01 | 0.947 | 0.676 | 1.04 | 0.87 |
